In data set [1] the test system is Rattus norvegicus. The experiment in a line: Antinociceptive activity in intrathecally dosed chronic constriction injury neuropathic pain Wistar rat model assessed as reduction of paw withdrawal latency measured up to 120 mins. The format is functional.
Data set [2] concerns RAW264.7. The experiment in a line: Cytotoxicity against mouse RAW264.7 cells assessed as inhibition of beta-actin expression at 50 uM by Western blotting. As to conditions: raw264.7, 50 µM. The class given is cell-based. On the technique in general: In western blotting, separated proteins are transferred to a membrane and probed.
Data set [3] deals with RAW264.7. The experiment in a line: Antiinflammatory activity in mouse RAW264.7 cells assessed as inhibition of LPS-induced expression of iNOS after treated 10 mins before LPS challenge measured after 16 hrs by Western blotting. The format is functional, cell-based.
The subject of data set [4] is Rattus norvegicus. The experiment in a line: Antinociceptive activity in chronic constriction injury neuropathic pain Wistar rat model assessed as reduction of paw withdrawal latency at 5 ug, administered intrathecally after 20 to 120 mins. The format is functional, organism-based.
Data set [5] relates to Rattus norvegicus. The experiment in a line: Antinociceptive activity in chronic constriction injury neuropathic pain Wistar rat model assessed as reduction of paw withdrawal latency at 0.1 to 5 ug, administered intrathecally after 20 mins. The format is functional, organism-based.
In data set [6] the test system is Rattus norvegicus. The experiment in a line: Antiatherosclerotic activity against balloon injury-induced angioplasty in Wistar rat assessed as inhibition of neointimal proliferation at 3 mg/kg/day, sc relative to control. The class given is functional. More on the design: scale not given: the % may be the effect or the level left. As to conditions: route subcutaneous.

Data set [7] has as its system SH-SY5Y. The experiment in a line: Neuroprotective activity in human SH-SY5Y cells assessed as protection against 6-OHDA-induced cytotoxicity at 1 uM pretreated 1 hr before 6-OHDA challenge measured after 15 hrs by Alamar blue assay. The format is functional, cell-based. Background: Alamar Blue is a resazurin reagent that responds to reducing activity.
For data set [8], the system named is Rattus norvegicus. The experiment in a line: Toxicity in chronic constriction injury neuropathic pain Wistar rat model assessed as effect on locomotor activity at 0.1 to 5 ug, administered intrathecally. The format is organism-based. The following applies: in vivo, icv_or_intrathecal.
Data set [9] deals with RAW264.7. The experiment in a line: Antiinflammatory activity in mouse RAW264.7 cells assessed as inhibition of LPS-induced expression of COX-2 treated 10 mins before LPS challenge measured after 16 hrs by Western blotting. The format is functional, cell-based.
In data set [10] the test system is Rattus norvegicus. The experiment in a line: Protection against encephalomyelitis-induced clinical signs in Lewis rat preimmunized with Freund's complete adjuvant at 30 ug/kg, administered intrathecally bid for 5 days from day 7 after immunization. The class given is functional, organism-based.
Data set [11] concerns Rattus norvegicus. The experiment in a line: Toxicity in Lewis rat assessed as neurological deffects at 30 ug/kg, administered intrathecally bid for 5 days. The following applies: in vivo, icv_or_intrathecal, 0.03 mg/kg, 120 h. The class given is organism-based.
Data set [12] relates to RAW264.7. The experiment in a line: Cytotoxicity against mouse RAW264.7 cells assessed as inhibition of beta-actin expression at 30 uM by Western blotting. The following applies: raw264.7, 30 µM. The class given is cell-based.
Data set [13] has as its system SH-SY5Y. The experiment in a line: Neuroprotective activity in human SH-SY5Y cells assessed as protection against 6-OHDA-induced cytotoxicity pretreated 1 hr before 6-OHDA challenge measured after 15 hrs by Alamar blue assay. The class given is functional.
Data set [14] in a line: Solubility of the compound in water. The class given is physicochemical.
The subject of data set [15] is RAW264.7. The experiment in a line: Antiinflammatory activity in mouse RAW264.7 cells assessed as inhibition of LPS-induced expression of iNOS at 10 uM treated 10 mins before LPS challenge measured after 16 hrs by Western blotting relative to control. The format is functional. More on the design: scale not given: the % may be the effect or the level left.
For data set [16], the system named is RAW264.7. The experiment in a line: Antiinflammatory activity in mouse RAW264.7 cells assessed as inhibition of LPS-induced expression of COX2 at 10 uM treated 10 mins before LPS challenge measured after 16 hrs by Western blotting relative to control. More on the design: scale not given: the % may be the effect or the level left. The format is functional.

pEC50, pIC50: −log10 of the molar value. Activity calls are given as the source filed them. The rule behind the calls is not given here.

In the case of `CC(=O)CCS(=O)(=O)CCO`, the ED50 in the data set on Rattus norvegicus [1] stood at 0.75 µg. Also, the Activity entry is on record as “Toxic” in the data set with RAW264.7 [2], 98.1% in the data set on Rattus norvegicus [6], “Non-toxic” in the data set on Rattus norvegicus [8] and “Non-toxic” with Rattus norvegicus [11]. The negative logarithm of the IC50 (pIC50) (as a rule, the IC50 on a negative log10 scale, so that one unit is a factor of ten) was 5.44 in the data set with RAW264.7 [3] and 4.49 in the data set on RAW264.7 [9]. Also, the outcome with Rattus norvegicus [4], in the data set with Rattus norvegicus [5] and with Rattus norvegicus [10] was Active. The outcome in the data set with SH-SY5Y [7] was inactive.

On to `C=CS(=O)(=O)CCC(C)=O` [AUSTRASULFONE], for which the Activity result in the data set on RAW264.7 [12] is “Toxic”; in the data set on SH-SY5Y [13], “Dose-dependent effect”. For the same compound, in the data set with SH-SY5Y [13] (read-out: ED50 (the source's name)), the pEC50 was 7.96. For the same compound, in [14], the solubility (in general, the concentration that dissolves in the medium under given conditions) is above 50 mg/mL.

`CC(=O)CCSCCO`: the Activity in the data set on RAW264.7 [15] is recorded as 59.5%; with RAW264.7 [16] it was 91.2%.

The record behind these values is ChEMBL document CHEMBL1629414, “A neuroprotective sulfone of marine origin and the in vivo anti-inflammatory activity of an analogue” (Eur J Med Chem, 2010).
